From patent publication US6444668B1 (Wyeth, priority 1999, dated 2002)

Tests used:
[1] = tested on: rat uterine decidualization; assay: Rat decidualization assay; format: in vivo; conditions: dose 3 mg/kg
Description: 1. Rat Decidualization Assay
b. Animals (RACUC Protocol #5002)
The animals are treated once daily for seven days.
Uteri are removed and trimmed of fat.
Body weight: Mean total animal body weight (default-kg)
Decidual response: [(D-C)/C]x100%

human PR = molecular target: T1, human PR (Homo sapiens, UniProt P06401); assay: PRE-luciferase assay in CV-1 cells; format: cell-based; conditions: PR antagonist; CV-1 cells co-transfected with human PR and PRE-luciferase; in the presence of 3 nM progesterone; read-out: hPR CV-1 IC50
T1 construct: expressed in transfected cells; host or cells: CV-1 cells (electroporation)
T1 sequence (P06401 1-933): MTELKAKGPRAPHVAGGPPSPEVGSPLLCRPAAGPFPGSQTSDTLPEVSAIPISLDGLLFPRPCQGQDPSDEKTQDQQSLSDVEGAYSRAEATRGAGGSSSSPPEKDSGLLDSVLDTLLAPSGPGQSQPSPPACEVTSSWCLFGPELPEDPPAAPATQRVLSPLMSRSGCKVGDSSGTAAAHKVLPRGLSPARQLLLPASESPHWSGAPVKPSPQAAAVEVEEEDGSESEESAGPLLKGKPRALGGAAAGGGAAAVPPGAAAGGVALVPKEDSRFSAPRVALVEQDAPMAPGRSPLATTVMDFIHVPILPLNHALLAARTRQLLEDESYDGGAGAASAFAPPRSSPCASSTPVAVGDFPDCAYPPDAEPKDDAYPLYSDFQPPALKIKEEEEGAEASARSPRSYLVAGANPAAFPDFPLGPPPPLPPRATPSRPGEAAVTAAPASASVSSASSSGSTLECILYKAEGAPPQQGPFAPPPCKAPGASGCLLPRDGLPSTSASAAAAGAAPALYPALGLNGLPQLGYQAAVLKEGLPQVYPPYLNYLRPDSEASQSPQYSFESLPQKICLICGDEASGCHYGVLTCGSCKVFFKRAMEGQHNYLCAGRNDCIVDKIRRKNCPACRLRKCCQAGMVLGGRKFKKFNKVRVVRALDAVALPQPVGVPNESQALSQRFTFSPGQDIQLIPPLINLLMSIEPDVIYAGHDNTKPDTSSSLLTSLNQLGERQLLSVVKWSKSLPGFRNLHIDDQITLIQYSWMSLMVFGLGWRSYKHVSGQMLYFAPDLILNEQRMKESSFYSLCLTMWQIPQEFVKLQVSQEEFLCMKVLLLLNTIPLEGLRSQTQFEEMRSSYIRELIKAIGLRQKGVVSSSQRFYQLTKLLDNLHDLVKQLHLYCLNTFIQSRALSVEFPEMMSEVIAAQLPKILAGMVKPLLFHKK
Description: 2. PRE-luciferase Assay in CV-1 to Cells
The object of this assay is to determine a compound's progestational or antiprogestational potency based on its effect on PRE-luciferase reporter activity in CV-1 cells co-transfected with human PR and PRE-luciferase plasmids. The materials methods used in the assay are as follows.
The growth medium was as follows: DMEM (BioWhittaker) containing 10% (v/v) fetal bovine serum (heat inactivated), 0.1 mM MEM non-essential amino acids, 100U/ml penicillin, […] streptomycin, and 2 mM GlutaMax (GIBCO, BRL). The experimental medium was as follows: DMEM (BioWhittaker), phenol red-free, containing 10% (v/v) charcoal-stripped fetal bovine serum (heat-inactivated), 0.1 mM MEM non-essential amino acids, 100U/ml penicillin […] streptomycin, and 2 mM GlutaMax (GIBCO, BRL).
b. Cell Culture, Transfection, Treatment, and Luciferase Assay
Stock CV-1 cells are maintained in growth medium Co-transfection is done using 1.2×10^7 cells, 5 mg pLEM plasmid with hPR-B inserted at Sph1 and BamH1 sites, 10 mg pGL3 plasmid with two PREs upstream of the luciferase sequence, and 50 mg sonicated calf thymus DNA as carrier DNA in […]. […] Luciferase activity is measured using luciferase reagents from Promega.
Each treatment consists of at least 4 replicates. […] EC50 or IC50 values are calculated from the retransformed values.

`CC1(C)OC(=O)Nc2ccc(-c3coc(C#N)c3)cc21` [Compound 7, 4-(44-Dimethyl-2-oxo-1,4-dihydro-2H-benzo[d][1,3]oxazin-6-yl)-furan-2-carbonitrile] was tested, and the “Decidualization, percentage inhibition at the dose specified” value [1] was 75% @ 3 and the IC50 (human PR) was 30 nM.
